Measurements published in the NIST ThermoML archive (doi:10.1021/acs.jced.6b00332).

Experiment: mn = molality of the nth substance listed, in mol/kg
Settings: 100 kPa, Liquid; for speed of sound: Frequency=3 MHz, Sing-around technique in a fixed-path interferometer; for mass density: Vibrating tube method

CCCCC[N+](CCCCC)(CCCCC)CCCCC.[Br-] [tetrapentylammonium bromide] + O
m1 = 0.01
Settings | mass density [kg/m3] | speed of sound [m/s]
293.15 K | 998.34 | 1485.3
298.15 K | 997 | 1499.1
303.15 K | 995.7 | 1511.2
308.15 K | 994.05 | 1521.6
313.15 K | 991.93 | 1530.5
318.15 K | 990.16 | 1537.9

CCCCCCCCCCCC[N+](C)(C)C.[Br-] [dodecyltrimethylammonium bromide] + O
Settings | mass density [kg/m3] | speed of sound [m/s]
293.15 K, m1 = 0.003 | 998.31 | 1483.3
293.15 K, m1 = 0.006 | 998.37 | 1484.2
293.15 K, m1 = 0.009 | 998.43 | 1484.9
293.15 K, m1 = 0.012 | 998.49 | 1485.6
293.15 K, m1 = 0.015 | 998.54 | 1486.3
293.15 K, m1 = 0.018 | 998.6 | 1486.7
293.15 K, m1 = 0.021 | 998.65 | 1486.8
293.15 K, m1 = 0.024 | 998.7 | 1486.9
293.15 K, m1 = 0.027 | 998.75 | 1487
293.15 K, m1 = 0.03 | 998.81 | 1487
293.15 K, m1 = 0.033 | 998.87 | 1487.1
293.15 K, m1 = 0.036 | 998.92 | 1487.1
293.15 K, m1 = 0.039 | 998.95 | 1487.1
293.15 K, m1 = 0.042 | 999 | 1487.1
293.15 K, m1 = 0.045 | 999.05 | 1487
298.15 K, m1 = 0.003 | 997.2 | 1497.2
298.15 K, m1 = 0.006 | 997.26 | 1497.9
298.15 K, m1 = 0.009 | 997.32 | 1498.6
298.15 K, m1 = 0.012 | 997.37 | 1499.2
298.15 K, m1 = 0.015 | 997.43 | 1499.9
298.15 K, m1 = 0.018 | 997.49 | 1500.2
298.15 K, m1 = 0.021 | 997.53 | 1500.3
298.15 K, m1 = 0.024 | 997.58 | 1500.3
298.15 K, m1 = 0.027 | 997.63 | 1500.4
298.15 K, m1 = 0.03 | 997.67 | 1500.4
298.15 K, m1 = 0.033 | 997.71 | 1500.5
298.15 K, m1 = 0.036 | 997.75 | 1500.4
298.15 K, m1 = 0.039 | 997.79 | 1500.5
298.15 K, m1 = 0.042 | 997.82 | 1500.4
298.15 K, m1 = 0.045 | 997.85 | 1500.5
303.15 K, m1 = 0.003 | 995.71 | 1509.7
303.15 K, m1 = 0.006 | 995.76 | 1510.3
303.15 K, m1 = 0.009 | 995.82 | 1511
303.15 K, m1 = 0.012 | 995.87 | 1511.6
303.15 K, m1 = 0.015 | 995.92 | 1512
303.15 K, m1 = 0.018 | 995.97 | 1512.2
303.15 K, m1 = 0.021 | 996.02 | 1512.2
303.15 K, m1 = 0.024 | 996.07 | 1512.2
303.15 K, m1 = 0.027 | 996.11 | 1512.2
303.15 K, m1 = 0.03 | 996.16 | 1512.2
303.15 K, m1 = 0.033 | 996.21 | 1512.2
303.15 K, m1 = 0.036 | 996.24 | 1512.2
303.15 K, m1 = 0.039 | 996.29 | 1512.3
303.15 K, m1 = 0.042 | 996.32 | 1512.2
303.15 K, m1 = 0.045 | 996.36 | 1512.3
308.15 K, m1 = 0.003 | 994.26 | 1520.3
308.15 K, m1 = 0.006 | 994.31 | 1520.9
308.15 K, m1 = 0.009 | 994.36 | 1521.5
308.15 K, m1 = 0.012 | 994.41 | 1522
308.15 K, m1 = 0.015 | 994.46 | 1522.6
308.15 K, m1 = 0.018 | 994.51 | 1522.6
308.15 K, m1 = 0.021 | 994.55 | 1522.6
308.15 K, m1 = 0.024 | 994.59 | 1522.6
308.15 K, m1 = 0.027 | 994.63 | 1522.6
308.15 K, m1 = 0.03 | 994.67 | 1522.5
308.15 K, m1 = 0.033 | 994.72 | 1522.5
308.15 K, m1 = 0.036 | 994.77 | 1522.5
308.15 K, m1 = 0.039 | 994.79 | 1522.5
308.15 K, m1 = 0.042 | 994.82 | 1522.6
308.15 K, m1 = 0.045 | 994.84 | 1522.5
313.15 K, m1 = 0.003 | 992.29 | 1529.4
313.15 K, m1 = 0.006 | 992.33 | 1529.9
313.15 K, m1 = 0.009 | 992.38 | 1530.4
313.15 K, m1 = 0.012 | 992.42 | 1530.9
313.15 K, m1 = 0.015 | 992.47 | 1531.4
313.15 K, m1 = 0.018 | 992.51 | 1531.5
313.15 K, m1 = 0.021 | 992.55 | 1531.4
313.15 K, m1 = 0.024 | 992.59 | 1531.4
313.15 K, m1 = 0.027 | 992.63 | 1531.3
313.15 K, m1 = 0.03 | 992.67 | 1531.3
313.15 K, m1 = 0.033 | 992.71 | 1531.2
313.15 K, m1 = 0.036 | 992.77 | 1531.3
313.15 K, m1 = 0.039 | 992.81 | 1531.3
313.15 K, m1 = 0.042 | 992.87 | 1531.3
313.15 K, m1 = 0.045 | 992.9 | 1531.2
318.15 K, m1 = 0.003 | 990.28 | 1536.3
318.15 K, m1 = 0.006 | 990.33 | 1536.7
318.15 K, m1 = 0.009 | 990.37 | 1537.2
318.15 K, m1 = 0.012 | 990.39 | 1537.8
318.15 K, m1 = 0.015 | 990.42 | 1538.2
318.15 K, m1 = 0.018 | 990.45 | 1538.4
318.15 K, m1 = 0.021 | 990.48 | 1538.6
318.15 K, m1 = 0.024 | 990.52 | 1538.7
318.15 K, m1 = 0.027 | 990.55 | 1538.7
318.15 K, m1 = 0.03 | 990.57 | 1538.7
318.15 K, m1 = 0.033 | 990.61 | 1538.9
318.15 K, m1 = 0.036 | 990.64 | 1538.9
318.15 K, m1 = 0.039 | 990.67 | 1539
318.15 K, m1 = 0.042 | 990.7 | 1539.1
318.15 K, m1 = 0.045 | 990.72 | 1539.1

CCCC[N+](CCCC)(CCCC)CCCC.[Br-] [tetrabutylammonium bromide] + O
m1 = 0.01
Settings | mass density [kg/m3] | speed of sound [m/s]
293.15 K | 998.57 | 1485.3
298.15 K | 997.35 | 1499.2
303.15 K | 995.88 | 1511.4
308.15 K | 994.29 | 1521.9
313.15 K | 992.33 | 1531
318.15 K | 990.43 | 1538.6
